# Test results as given in patent US7018796B2, “Preincubation assay methods” (Shionogi & Co., Ltd., priority 2000, dated 2006).
# Target: T1, HCV RNA-dependent RNA polymerase (Hepatitis C virus genotype 1a, UniProt P27958)
# T1 construct: HCV RNA-dependent RNA polymerase is encoded in the NS5B (nonstructural protein 5B) region of HCV; made in house; host or cells: insect cells or E. coli
# Assay: Pre-incubation assay method with 3H-UTP (Example 1)
# Type: biochemical
# Conditions: pre-incubation 25° C. 60 min, method of Example 1; for inhibition at 100 µg/mL: 100 μg/ml, read-out: Inhibition rate at a concentration of 100 μg/ml
# Experimental: A HCV RNA-dependent RNA polymerase, template RNA, primer RNA and Mg ion (Mg^2+) are pre-incubated at approximately 25° C. for approximately 1 hour. After that, substrate RNA and a test substance are added to start an enzyme reaction and measure an enzyme activity. IC50 value can be calculated by comparing with an enzyme activity measured in the absence of a test substance as well as the above prior method. An inhibitor can be selected by comparing IC50. An example of a procedure of this method is shown in the later described Example 1.
# A cDNA encoding HCV RNA-dependent RNA polymerase was made by use of HCV positive human plasma and HCV RNA-dependent RNA polymerase was expressed using the insect cells or the E. coli. HCV RNA-dependent RNA polymerase in the cell extract was purified by use of an anion exchange chromatography, a heparin affinity chromatography, a polyU affinity chromatography, a cation exchange chromatography and gel filtration chromatography. The purification was performed at 4° C. and Tris buffer (pH 7.5) containing ethylenediaminetetraacetic acid (1 mM), dithiothreitol (10 mM) and glycerol (20%) was used. The enzyme purified was stored at 4° C. until use for the assays.
# • 1) The buffer I ^1) (10.5 μl) containing Tris-HCl (100 mM, pH 7.5), MgCl2 (25 mM), dithiothreitol (5 mM), KCl (125 mM) and ethylenediaminetetraacetic acid (5 mM) was transferred to a polypropylene tube and then poly(A)^2) solution (100 μg/ml, 10.5 μl), oligo(U)12 ^3) solution (1 μg/ml, 10.5 μl) and water (8 μl) were added into the tube and mixed. • 2) Next, HCV RNA-dependent RNA polymerase (10.5 μl) was added into the tube and pre-incubated at 25° C. for […]. • 3) The enzyme solution pre-incubated (50 μl) was added to a test compound (5.26 μl/well) dissolved with dimethyl sulfoxide or water in a well of a 96-wells microtiter plate. • 4) Additionally, the buffer II (10.6 μl) containing Tris-HCl (100 mM, pH 7.5), MgCl2 (25 mM), dithiothreitol (5 mM), KCl (125 mM), ethylenediaminetetraacetic acid (5 mM) and UTP • 4) (2.1 μM, 1 μCi ^3H-UTP), was mixed with water (39.4 μl). The mixture (50 μl) was added into the well and mix, and then the enzyme reaction was performed at 25° C. for 30 min. • 5) After enzyme reaction for 30 min, the enzyme reaction was stopped by adding disodium ethylenediaminetetraacetic acid (50 mM, 50 μl). • 6) By use of the cell-harvester, all volume of the enzyme reaction sample was transferred onto a filtermat bound with diethylaminoethyl base (referred to as DEAE-filtermat) and washed twice for 10 sec with sodium phosphate buffer (0.25 M, pH 7.0) and once for 10 sec with de-ionized water. • 7) The DEAE-filtermat was dried at 95° C. for 15 min and transferred into a sample bag with liquid scintillater (10 ml), and then a sample bag was sealed. • 8) The radio activity was measured by a scintillation counter. • 9) The inhibitory rate was calculated from the radioactivity measured (ccpm) as follows. [formula]
# The concentration of compound at 50% inhibition (IC50 value) was calculated from the compound concentration used and the inhibitory rate calculated.
# When use of a compound at a μg/ml results in A % inhibition and use of a compound at β μg/ml results in B % inhibition on condition of A≧50>B the IC50 value is obtained by the calculation as follows. IC50 (μg/ml)=10^[(50−B)/(A−B)×(log^α^−log^β^)+log^β^]
# T1 sequence (P27958 2421-3011): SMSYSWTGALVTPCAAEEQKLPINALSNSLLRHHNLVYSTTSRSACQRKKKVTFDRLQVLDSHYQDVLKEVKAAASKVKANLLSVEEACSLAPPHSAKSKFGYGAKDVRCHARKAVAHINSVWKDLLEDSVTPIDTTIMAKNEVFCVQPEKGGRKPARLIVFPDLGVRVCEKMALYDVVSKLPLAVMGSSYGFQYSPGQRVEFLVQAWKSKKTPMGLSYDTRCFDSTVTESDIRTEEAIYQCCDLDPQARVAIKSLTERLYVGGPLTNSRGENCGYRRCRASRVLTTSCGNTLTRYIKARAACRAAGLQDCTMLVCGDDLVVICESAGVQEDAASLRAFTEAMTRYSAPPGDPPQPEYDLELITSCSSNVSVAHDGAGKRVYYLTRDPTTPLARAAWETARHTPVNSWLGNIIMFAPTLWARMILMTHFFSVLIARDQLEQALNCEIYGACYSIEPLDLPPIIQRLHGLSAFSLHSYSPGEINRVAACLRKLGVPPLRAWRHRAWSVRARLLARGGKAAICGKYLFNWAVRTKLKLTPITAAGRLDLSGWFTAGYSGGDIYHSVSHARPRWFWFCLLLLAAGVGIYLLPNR
Compound,inhibition at 100 µg/mL [%],IC50 [µM]
O=C(O)C(O)=CC(=O)c1ccc(O)cc1 [Compound I-2],99,4.32
Cc1ccc(C(=O)C=C(O)C(=O)O)cc1 [Compound I-3],99,4.85
Nc1ccc(C(=O)C=C(O)C(=O)O)cc1 [Compound I-4],> 99,6.76
O=C(O)C(O)=CC(=O)c1ccccc1 [Compound I-5],98,12
Cc1ccc(C(=O)C=C(O)C(=O)O)s1 [Compound I-6],97,14.6
O=C(O)C(O)=CC(=O)c1ccc2ccccc2c1 [Compound I-7],95,28.5
O=C(O)C(O)=CC(=O)c1cc2ccccc2[nH]1 [Compound I-8],95,29.8
O=C(O)C(O)=CC(=O)c1ccc(Cl)cc1 [Compound I-9],94,31.3

# More lines, now with the values ahead:
inhibition at 100 µg/mL [%],IC50 [µM],Compound
94,36.3,O=C(O)C(O)=CC(=O)c1ccsc1 [Compound I-10]
94,35.2,O=C(O)C(O)=CC(=O)c1ccc(F)cc1 [Compound I-11]
94,37.8,COc1cccc(C(=O)C=C(O)C(=O)O)c1 [Compound I-12]
92,43.9,O=C(O)C(O)=CC(=O)c1cccs1 [Compound I-13]
93,32.8,O=C(O)C(O)=CC(=O)c1cccc(Br)c1 [Compound I-14]
94,50.2,Cn1cccc1C(=O)C=C(O)C(=O)O [Compound I-15]
92,55.2,O=C(O)C(O)=CC(=O)c1ccc[nH]1 [Compound I-16]
92,46.2,COc1cc(C(=O)C=C(O)C(=O)O)ccc1O [Compound I-17]
90,49.8,O=C(O)C(O)=CC(=O)c1ccc(Cl)cc1Cl [Compound I-18]
